Article PMC13227213, “Design of strictly orthogonal biosensors for maximizing renewable biofuel overproduction” (Journal of Advanced Research, 2025)

Legend:
BmoR A117T/F163Y = biological target: T1, BmoR A117T/F163Y (Thauera butanivorans, UniProt A7MAQ9, A117T/F163Y); assay: cell-based; set-up: species or system E. coli XL10-Gold; details: n = 3; read-out: Apparent Km
T1 construct: full-length BmoR, biosensor plasmid pWT-A117T/F163Y (PbmoR-bmoR; Pbmo-gfp)
Protocol: (§1) The response values of the above colonies containing various BmoR mutants to n-pentanol, isopentanol, n-butanol or isobutanol were tested. The single colonies were pre-inoculated into 5 mL LB medium with 50 μg/mL carbenicillin and then cultured at 37 °C overnight. […] The excitation and emission wavelengths were set as 470 and 510 nm, respectively. The fluorescence values were normalized as the GFP/OD600 values. Besides, 1 mL of the culture was centrifuged at 5,000 rpm for 5 min. The supernatant was discarded, and the sediment was then resuspended in 2 mL of the physiological saline. 5 μL of the culture was spotted onto glass slides for fluorescence microscopy (UOP 2100). Fifteen colonies which only responded to 10 mM n-pentanol or isopentanol were screened out. The bmoRs in the 15 colonies were amplified and sequenced to identify the mutation sites. Finally, the bmoRs in the five colonies were mutated.
The OD600 values needed to be subtracted from the OD600 value of the blank LB culture. The excitation and emission wavelengths were set as 470 and 510 nm, respectively. The fluorescence values were normalized as the GFP/OD600 values. Besides, the GFP/OD600 values of the strain containing the plasmid pYH7 was regarded as the background fluorescence to be subtracted. Apparent Km values were estimated with Prism 9.5.0 through non-linear regression of the Michaelis-Menten equation. […]

[1] = biological target: T2, BmoR WT (fusion with sfGFP) (Thauera butanivorans, UniProt A7MAQ9); assay: MicroScale Thermophoresis of sfGFP-fused BmoR in E. coli BL21(DE3) lysate supernatant, 16-point ligand dilution in assay buffer with 1 % DMSO, incubated at 37 °C for 15 min.; type: binding; details: n = 3
T2 construct: SUMO-BmoR-TEV-sfGFP-His fusion, E. coli BL21(DE3) lysate supernatant
T2 sequence (A7MAQ9 1-669): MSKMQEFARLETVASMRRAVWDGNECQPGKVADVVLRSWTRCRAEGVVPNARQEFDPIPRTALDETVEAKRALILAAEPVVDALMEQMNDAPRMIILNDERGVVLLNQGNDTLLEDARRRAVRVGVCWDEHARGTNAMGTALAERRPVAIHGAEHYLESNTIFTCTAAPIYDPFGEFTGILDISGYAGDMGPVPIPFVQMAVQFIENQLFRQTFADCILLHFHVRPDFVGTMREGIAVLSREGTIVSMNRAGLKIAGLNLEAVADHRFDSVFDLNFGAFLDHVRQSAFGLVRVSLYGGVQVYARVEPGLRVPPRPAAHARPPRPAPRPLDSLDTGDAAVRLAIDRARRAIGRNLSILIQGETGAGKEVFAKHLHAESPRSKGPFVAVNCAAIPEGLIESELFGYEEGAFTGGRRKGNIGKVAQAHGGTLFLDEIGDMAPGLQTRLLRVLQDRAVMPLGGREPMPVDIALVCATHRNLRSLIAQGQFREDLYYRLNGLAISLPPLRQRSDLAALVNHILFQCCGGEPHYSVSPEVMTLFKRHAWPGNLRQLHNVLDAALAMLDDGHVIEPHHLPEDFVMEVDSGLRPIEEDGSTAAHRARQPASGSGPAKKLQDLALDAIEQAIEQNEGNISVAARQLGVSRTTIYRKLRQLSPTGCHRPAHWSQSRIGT
Protocol: (§2) Plasmids pWT-SUMO-BmoR-TEV-sfGFP-His, pWT-SUMO-BmoR^M94V/A117T/F163Y/F272L-TEV-sfGFP-His, and pWT-SUMO-BmoR^M94V/W128R/F272L-TEV-sfGFP-His were individually transformed into E. coli BL21(DE3). […] Subsequently, 100 µL of the seed culture was transferred to 100 mL LB medium and grown at 37 °C until the OD600 value reached 0.8. 0.1 mM IPTG was added into the culture, and the culture was incubated at 16 °C, 170 rpm for 12–18 h. 50 mL centrifuge tubes were used to centrifuge the culture at 5,000 rpm for 15 min to collect the cell pellets. The pellets were then resuspended in 15 mL of the binding buffer, and the cells were disrupted using the ultrasonic cell crusher. The mixture was then centrifuged at 10,000 rpm for 30 min to collect the supernatant. The Kd values of the wild-type BmoR and the mutants towards four SMs were measured by the MicroScale Thermophoresis (MST, Nanotemper) from Wuhan Bio-lab Biotechnology Co., Ltd.
(§3) A 10 µL aliquot of the supernatant was diluted three folds with the assay buffer. The MST sample chamber was opened, and the tray was removed. The diluted protein sample was aspirated using a capillary and placed in the corresponding slot of the tray. The information of the protein samples and assay bugger was input, and the type of capillary was selected. The excitation power was set to “Auto”, and MST power was set to “High”. The concentration of the samples was adjusted using the assay buffer to 1/3 for BmoR^WT, BmoR^M94V/A117T/F163Y/F272L and BmoR^M94V/W128R/F272L. The samples were diluted to 100 µL/2000 µM using the assay buffer. Two eight-well strips were prepared and labeled from 1st to 16th. 10 µL of the assay buffer (1 % DMSO) was added into the 2nd-16th tubes, while 20 µL of the prepared sample was added to the 1st tube. 10 µL from the 1st tube was sequentially diluted into the 2nd-16th tubes. Subsequently, 10 µL of the lysate was added to each tube and mixed thoroughly. The mixed samples were incubated at 37 °C for 15 min before aspirating with a capillary to load into the sample tray. The software was started to begin the experiment.

BmoR W128R = biological target: T3, BmoR W128R (Thauera butanivorans, UniProt A7MAQ9, W128R); assay: Whole-cell BmoR biosensor dose-response (GFP/OD600, Pbmo-gfp reporter) in 96-deep-well plates with 0-60 mM pentanols or 0-100 mM butanols, LB medium at 30 °C, fitted to the Michaelis-Menten equation.; type: cell-based, E. coli XL10-Gold; details: n = 3; read-out: Apparent Km
T3 construct: full-length BmoR, biosensor plasmid pWT-W128R (PbmoR-bmoR; Pbmo-gfp)
T3 sequence (A7MAQ9 entry or part of it W128R): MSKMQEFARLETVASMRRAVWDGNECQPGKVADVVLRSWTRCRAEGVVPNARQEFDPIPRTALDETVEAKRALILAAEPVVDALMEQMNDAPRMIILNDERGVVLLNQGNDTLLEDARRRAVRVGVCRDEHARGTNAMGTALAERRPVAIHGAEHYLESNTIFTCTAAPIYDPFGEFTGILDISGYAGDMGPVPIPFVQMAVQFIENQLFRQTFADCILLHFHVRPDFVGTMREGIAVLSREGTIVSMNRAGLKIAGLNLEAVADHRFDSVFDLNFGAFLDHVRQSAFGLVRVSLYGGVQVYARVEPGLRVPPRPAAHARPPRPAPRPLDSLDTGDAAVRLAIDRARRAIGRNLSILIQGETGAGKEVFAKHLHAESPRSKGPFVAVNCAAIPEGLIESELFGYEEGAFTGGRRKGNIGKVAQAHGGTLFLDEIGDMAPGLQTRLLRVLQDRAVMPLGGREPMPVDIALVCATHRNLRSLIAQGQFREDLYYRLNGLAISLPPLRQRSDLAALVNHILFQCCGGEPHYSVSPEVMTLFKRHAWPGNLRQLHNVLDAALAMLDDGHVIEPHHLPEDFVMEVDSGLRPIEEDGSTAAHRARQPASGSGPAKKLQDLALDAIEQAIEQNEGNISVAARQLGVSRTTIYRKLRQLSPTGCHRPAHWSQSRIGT
Protocol: as §1
(§4) The OD600 values needed to be subtracted from the OD600 value of the blank LB culture. The excitation and emission wavelengths were set as 470 and 510 nm, respectively. The fluorescence values were normalized as the GFP/OD600 values. Besides, the GFP/OD600 values of the strain containing the plasmid pYH7 was regarded as the background fluorescence to be subtracted. Apparent Km values were estimated with Prism 9.5.0 through non-linear regression of the Michaelis-Menten equation. Finally, one or two effective mutants with orthogonal response towards n-pentanol or isopentanol were obtained.

BmoR WT = biological target: T4, BmoR WT (Thauera butanivorans, UniProt A7MAQ9); assay: as above; type: cell-based, E. coli XL10-Gold; details: n = 3; read-out: Apparent Km
T4 construct: full-length BmoR, expressed from biosensor plasmid (PbmoR-bmoR; Pbmo-gfp) in E. coli; hexamer
T4 sequence (A7MAQ9 1-669): T2 sequence (A7MAQ9 1-669)
Protocol: as §1, §4

[2] = biological target: T5, BmoR M94V/W128R/F272L (fusion with sfGFP) (Thauera butanivorans, UniProt A7MAQ9, F272L/M94V/W128R); assay: MicroScale Thermophoresis of sfGFP-fused BmoR in E. coli BL21(DE3) lysate supernatant, 16-point ligand dilution in assay buffer with 1 % DMSO, incubated at 37 °C for 15 min.; type: binding; details: n = 3
T5 construct: SUMO-BmoR-TEV-sfGFP-His fusion, E. coli BL21(DE3) lysate supernatant
T5 sequence (A7MAQ9 entry or part of it M94V/W128R/F272L): as the sequence (A7MAQ9 entry or part of it W128R) above, with M94V, F272L counted along it
Protocol: as §2, §3

Δ33 = details: 40 mM
Protocol: (§5) A library of E. coli MG1655-derived strains with different genomic large-fragment deletions ranging from 14 to 143 kb was constructed and stored. To screen pentanol-tolerant strains, the strains from the library were inoculated into 3 mL LB medium and cultured at 37 °C for 8–10 h to obtain seed cultures. Subsequently, 50 µL of the seed culture was transferred to 5 mL LB medium in the presence of 20 mM n-pentanol or isopentanol and grown at 37 °C with 220 rpm for 12 h. A microplate reader (BioTek Cytation 3) was used to detect the OD600 values.

Δ29 = details: equivalent isopentanol stress (40 mM)
Protocol: as §5

[3] = biological target: T6, BmoR M94V/A117T/F163Y/F272L (fusion with sfGFP) (Thauera butanivorans, UniProt A7MAQ9, A117T/F163Y/F272L/M94V); assay: MicroScale Thermophoresis of sfGFP-fused BmoR in E. coli BL21(DE3) lysate supernatant, 16-point ligand dilution in assay buffer with 1 % DMSO, incubated at 37 °C for 15 min.; type: binding; details: n = 3
T6 construct: SUMO-BmoR-TEV-sfGFP-His fusion, E. coli BL21(DE3) lysate supernatant
T6 sequence (A7MAQ9 entry or part of it M94V/A117T/F163Y/F272L): as the sequence (A7MAQ9 entry or part of it W128R) above, with M94V, A117T, R128W, F163Y, F272L counted along it
Protocol: as §2, §3

E. coli MG1655 = assay: Tolerance of wild-type MG1655 to pentanols (OD600)
Protocol: To assess the tolerance of wild-type MG1655 to n-pentanol or isopentanol, the single colony of wild-type MG1655 was inoculated into 3 mL LB medium and cultured at 37 °C for 8–10 h to obtain the seed culture. 50 µL of the seed culture was transferred to 5 mL LB medium adding 0–100 mM n-pentanol or isopentanol and grown at 37 °C with 220 rpm for 12 h. A microplate reader (BioTek Cytation 3) was used to detect the OD600 values.

T1 sequence (A7MAQ9 entry or part of it A117T/F163Y): as the sequence (A7MAQ9 entry or part of it W128R) above, with A117T, R128W, F163Y counted along it

| SMILES | EC50 (BmoR A117T/F163Y) | Kd [1] | EC50 (BmoR W128R) | EC50 (BmoR WT) | also measured |
| --- | --- | --- | --- | --- | --- |
| CC(C)CO [Isobutanol, 2-methyl-1-propanol] | 22.3 mM | 11800 nM | 63.3 mM | 8.75 mM | – |
| CC(C)CCO [Isopentanol, 3-methyl-1-butanol] | – | 93.8 nM | 58.2 mM | 3.99 mM | Kd [2]: 26.1 nM |
| CC(C)CCO [isopentanol] | – | – | – | – | fold increase of OD600 / biomass compared to the wild type (Δ33): 1.34 fold; fold higher biomass accumulation than the wild type (Δ29): 1.58 fold |
| CCCCCO [n-Pentanol, 1-pentanol] | 59.5 mM | 106 nM | – | 5.09 mM | Kd [3]: 0.322 mM |
| CCCCCO [n-pentanol] | – | – | – | – | fold reduction of OD600 (E. coli MG1655; 20 mM): 2.67 fold; OD600 of wild-type MG1655 (E. coli MG1655; 20 mM, 12 h): 0.420 ± 0.032; growth of wild-type MG1655 (in words) (E. coli MG1655; 60 mM): failing to grow |
